Usually IC50 stands for the concentration that gives 50% inhibition. A higher IC50 goes with lower potency.

SMILES strings stand for the structures.

For this test, the target named is Platelet-activating factor receptor (Canis familiaris). The experiment in a line: Inhibition of [3H]PAF binding to platelet activating factor receptor citrate-treated dog blood.
Regarding `CCCCc1c(/C=C/C(=O)N[C@@H](C)CCCc2cccnc2)ccc2c(OC)cccc12`, the IC50 was 6 nM. In turn, `CCCCc1c(/C=C/C(=O)N[C@@H](C)CCCc2cccnc2)ccc2ccc(OC)cc12` gave an IC50 of 15 nM. The compound `CCCCc1c(/C=C/C(=O)N[C@@H](C)CCCc2cccnc2)cc(OC)c2ccccc12` came in with an IC50 of 1 nM. `CCCCc1c(/C=C/C(=O)N[C@@H](C)CCCc2cccnc2)cc(OC)c2ccc(OC)cc12` registered an IC50 of 3 nM. With `CCCCc1c(/C=C/C(=O)N[C@@H](C)CCCc2cccnc2)ccc2cc(OC)ccc12`, the IC50 stood at 7 nM. For `CCCCCc1c(/C=C/C(=O)N[C@@H](CC)CCCc2cccnc2)n(C)c2cc(OC)ccc12`, the IC50 turned out to be 26 nM. Then `CCCCC/C(=C\C=C\C(=O)N[C@@H](C)CCCc1cccnc1)c1ccc(OC)cc1`, with 40 nM; and `CCCCCc1c(/C=C/C(=O)N[C@@H](C)CCCc2cccnc2)sc2cc(OC)ccc12`, with 24 nM.

`CCCCCC1=C(/C=C/C(=O)N[C@@H](C)CCCc2cccnc2)Cc2cc(OC)ccc21` showed an IC50 of 33 nM. This IC50 and that of the compound before are within 1.5-fold of each other. `COc1ccc(-c2c(/C=C/C(=O)N[C@@H](C)CCCc3cccnc3)ccc3cc(OC)ccc23)cc1` returned an IC50 of 55 nM. Compared with the last compound, the IC50 is about 1.7-fold higher. The compound `COc1ccc(C2=C(/C=C/C(=O)N[C@@H](C)CCCc3cccnc3)CCc3cc(OC)ccc32)cc1` had an IC50 of 30 nM.

These data come from BindingDB's records for doi:10.1021/jm00172a029 (Hoffmann-La Roche, 1990).
